Measured values taken from patent publication US6624142B2, “Trimethyl lock based tetrapartate prodrugs” (Enzon, Inc., priority 1997, dated 2003).

Test system: s.c. Human Mammary Tumor (MX-1)
Experiment: Efficacy against s.c. MX-1 human mammary tumor in nude mice
Assay type: in vivo
Details: 30 mg/kg q7d × 3, iv
Experimental: Following at least one week of acclimation, tumors were established by injecting 1×10^6 (100 μl) harvested MX-1 mammary tumor cells in a single subcutaneous site, on the left axillary flank region of nude mice. The tumor injection site was observed twice weekly and measured once palpable. The tumor volume for each mouse was determined by measuring two dimensions with calipers and calculated using the formula: tumor volume ((length×width^2)/2). When tumors reached the average volume of approximately 65 mm^3, the mice were divided into their experimental groups, which consists of vehicles (20 m M Sodium PO4 in 0.6% NaCl) controls, Leu-Doxorubicin, compound 3 of Example 1a, compound 5 of Example 2a. The mice were sorted to evenly distribute tumor size, grouped into 6 mice/cage, and ear punched for permanent identification. Drugs were dosed intravenously via the tail vein once per week for three weeks (Qd7×3). Mouse weight and tumor sizes were measured at the beginning of study and twice weekly through week 5.
The overall growth of tumors was calculated as the mean tumor volume at one week following the end of the treatment. A percent treatment over control (T/C) value was also calculated when the control group's median tumor size reached approximately 800-1100 mm^3 and again at one week following treatment. The T/C value in percent is a non-quantitative indication of anti-tumor effectiveness.

Q: `COc1cccc2c1C(=O)c1c(O)c3c(c(O)c1C2=O)C[C@@](O)(C(=O)CO)C[C@@H]3O[C@H]1C[C@H](NC(=O)[C@@H](N)CC(C)C)[C@H](O)[C@H](C)O1` [Leu-Dox, Leucine-Doxorubicin, reference compound] was tested. Which “Tumor Vol. Mean ± SEM (Day 25-28)” value (Day 25-28, mean baseline tumor volume 65 mm^3) did it give?
A: 860 ± 163 mm^3

Q: What about the “T/C (%) 1000 mm^3” value (median tumor volume, treatment vs control, when control median reached approximately 1000 mm^3) of the same compound?
A: 56.5%

Q: And the “% Change Mean ± SEM (Day 25-28)” value (tumor volume change, Day 25-28)?
A: 1373 ± 487%
